From patent US6720346B2, “Thiazole benzamide derivatives and pharmaceutical compositions for inhibiting cell proliferation” (Agouron Pharmaceuticals, Inc., priority 2001, dated 2004)

What was measured:
[1] = molecular target: T1, CDK2/cyclin A (Homo sapiens, UniProt P24941); test: Inhibition of CDK2/cyclin A retinoblastoma kinase activity (Ki; % inhibition); type: biochemical; conditions: at 0.03 μM
T1 construct: made in house; host or cells: CDK2: insect cells (baculovirus); cyclin A: E. coli
Method in brief: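 Apparent Ki values came from fitting concentration-dependent activity data to competitive (or competitive tight-binding) models, and % inhibition from single 30 nM screens of library compounds. Activity was measured as ³²P/³³P incorporation from 25 μM ATP into an Rb substrate by 10 or 19 nM CDK2/delta cyclin A at 30 °C over 60–75 min, pH 7.4.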

[2] = system: HCT-116 cell line; test: Inhibition of cell growth, MTT tetrazolium salt assay; type: cell-based; conditions: for HCT-116 % Inhibition at 0.25 μM: HCT-116, at 0.25 μM; for HCT-116 % Inhibition at 0.1 μM: HCT-116, at 0.1 μM
Method in brief: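 HCT-116 cells in McCoy's 5A were dosed 4 h after plating with compounds in 0.5% DMSO and grown 3–5 days at 37 °C. Then 0.2 mg/mL MTT was added for 4 h and formazan absorbance read at 540 nm. IC50/IC90 came from semi-log plots against DMSO-only controls.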

[3] = molecular target: T2, human CDK4/cyclin D3 (Homo sapiens, UniProt P11802); test: Inhibition of CDK4/cyclin D retinoblastoma kinase activity (Ki; % inhibition); type: biochemical; conditions: at 0.03 μM
T2 construct: made in house; host or cells: insect cells co-infected with baculovirus vectors
T2 sequence (P11802 whole entry): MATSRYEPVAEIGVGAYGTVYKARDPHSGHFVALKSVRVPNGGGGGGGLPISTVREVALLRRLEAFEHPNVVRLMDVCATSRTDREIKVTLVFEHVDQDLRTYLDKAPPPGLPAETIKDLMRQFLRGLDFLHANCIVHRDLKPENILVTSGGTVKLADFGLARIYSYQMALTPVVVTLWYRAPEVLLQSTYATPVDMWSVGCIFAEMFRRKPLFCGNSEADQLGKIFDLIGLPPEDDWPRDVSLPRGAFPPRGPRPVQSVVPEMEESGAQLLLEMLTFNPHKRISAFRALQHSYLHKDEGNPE
T2 sequence (P30281 1-264 partner limits assumed): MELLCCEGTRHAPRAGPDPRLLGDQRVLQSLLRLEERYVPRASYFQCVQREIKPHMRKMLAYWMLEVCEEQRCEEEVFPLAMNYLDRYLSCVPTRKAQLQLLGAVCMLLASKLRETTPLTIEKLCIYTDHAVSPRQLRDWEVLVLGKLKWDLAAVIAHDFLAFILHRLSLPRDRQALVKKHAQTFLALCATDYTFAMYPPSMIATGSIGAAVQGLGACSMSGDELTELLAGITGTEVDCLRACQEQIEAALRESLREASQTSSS
Method in brief: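 Radiometric filter-binding read-out: Rb residues 386-928 phosphorylated by 5 nM CDK4/cyclin D3(1-264) from baculovirus-infected insect cells, 25 μM ATP, HEPES pH 7.4, 30 °C. Run 20 min, or 60 min for tight-binding inhibitors. Screening at 30 nM theoretical compound; apparent Ki by competitive-inhibition fitting.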

Row | Compound | CDK2 % Inhibition at 0.03 μM [1] | HCT-116 % Inhibition at 0.25 μM [2] | CDK4 % Inhibition at 0.03 μM [3] | HCT-116 % Inhibition at 0.1 μM [2]
1 | CCN1CCN(C(=O)c2ccc(Nc3nc(N)c(C(=O)c4c(F)cccc4F)s3)cc2)CC1 [Example G81] | 15% | 58% | 19% | 
2 | Nc1nc(Nc2ccc(C(=O)Nc3ccc(S(N)(=O)=O)cc3)cc2)sc1C(=O)c1c(F)cccc1F [Example G82] | 24% | 48% | 15% | 
3 | Nc1nc(Nc2ccc(C(=O)Nc3cccc4cnccc34)cc2)sc1C(=O)c1c(F)cccc1F [Example G83] | 16% | 64% | 7% | 
4 | Nc1nc(Nc2ccc(C(=O)Nc3ccc(Cl)c(Cl)c3)cc2)sc1C(=O)c1c(F)cccc1F [Example G84] | 9% | 63% | 3% | 
5 | NC(=O)c1ccc(NC(=O)c2ccc(Nc3nc(N)c(C(=O)c4c(F)cccc4F)s3)cc2)cc1 [Example G85] | 7% | 56% | 6% | 
6 | COc1cc(NC(=O)c2ccc(Nc3nc(N)c(C(=O)c4c(F)cccc4F)s3)cc2)cc(OC)c1 [Example G86] | 10% | 73% | 0% | 39%
7 | Cc1nccc(-c2cccc(NC(=O)c3ccc(Nc4nc(N)c(C(=O)c5c(F)cccc5F)s4)cc3)c2)n1 [Example G87] | −40% | 78% | 13% | 54%
8 | Nc1nc(Nc2ccc(C(=O)NCCCN3CCCC3=O)cc2)sc1C(=O)c1c(F)cccc1F [Example G88] | −23% | 49% | 6% | 24%
9 | CC(C)C(C)NC(=O)c1ccc(Nc2nc(N)c(C(=O)c3c(F)cccc3F)s2)cc1 (stereo not drawn) [Example G89] | −20% | 59% | −4% | 30%
10 | CCCCC(CC)NC(=O)c1ccc(Nc2nc(N)c(C(=O)c3c(F)cccc3F)s2)cc1 (stereo not drawn) [Example G90] | −30% | 54% | 2% | 24%
11 | Nc1nc(Nc2ccc(C(=O)NCCc3ccccc3)cc2)sc1C(=O)c1c(F)cccc1F [Example G91] | −19% | 68% | 9% | 34%
12 | CC(CNC(=O)c1ccc(Nc2nc(N)c(C(=O)c3c(F)cccc3F)s2)cc1)N(C)C (stereo not drawn) [Example G92] | −7% | 98% | 10% | 85%
13 | CN(C)CCCCNC(=O)c1ccc(Nc2nc(N)c(C(=O)c3c(F)cccc3F)s2)cc1 [Example G93] | −4% | 58% | 11% | 26%
14 | CC(O)c1ccc(NC(=O)c2ccc(Nc3nc(N)c(C(=O)c4c(F)cccc4F)s3)cc2)cc1 (stereo not drawn) [Example G94] | 10% | 80% | 4% | 38%
15 | Nc1nc(Nc2ccc(C(=O)NC3CCc4ccccc43)cc2)sc1C(=O)c1c(F)cccc1F (stereo not drawn) [Example G95] | 12% | 63% | 18% | 32%
16 | CC(C)NC(=O)c1ccc(Nc2nc(N)c(C(=O)c3c(F)cccc3F)s2)cc1 [Example G96] | −10% | 56% | 5% | 20%
17 | COC(CNC(=O)c1ccc(Nc2nc(N)c(C(=O)c3c(F)cccc3F)s2)cc1)OC [Example G97] | 2% | 56% | 11% | 28%
18 | COCCCNC(=O)c1ccc(Nc2nc(N)c(C(=O)c3c(F)cccc3F)s2)cc1 [Example G98] | −24% | 60% | 11% | 22%
19 | CN(C)CCCCCCNC(=O)c1ccc(Nc2nc(N)c(C(=O)c3c(F)cccc3F)s2)cc1 [Example G99] | −16% | 62% | 23% | 24%
20 | Nc1nc(Nc2ccc(C(=O)Nc3ccc4nc[nH]c4c3)cc2)sc1C(=O)c1c(F)cccc1F [Example G100] | 13% | 89% | 22% | 27%
